Reference: patent publication US6953812B2, “Glucagon antagonists/inverse agonists” (Novo Nordisk, Inc., priority 2000, dated 2005)
Read-outs that look alike come from different tables or passages of the source.

How the values were obtained:
human glucagon receptor = molecular target: T1, human glucagon receptor (Homo sapiens, UniProt P47871); assay: Glucagon Binding Assay (II)
T1 construct: expressed in transfected cells; host or cells: BHK (baby hamster kidney) cells, membrane preparation
Outline: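 Membranes from BHK cells transfected with the human glucagon receptor were incubated with test compound (in DMSO) in HEPES buffer pH 7.5 with Ca2+/Mg2+ and WGA beads for 4 h, then settled 8–48 h before scintillation counting. Non-specific binding was defined with 500 nM glucagon.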

human GIP receptor = molecular target: T2, human GIP receptor (Homo sapiens, UniProt P48546); assay: GIP Binding Assay; conditions: membranes of BHK cells transfected with human GIP receptor, 125I-GIP, SPA; read-out: GIP Bd Assay IC50
T2 construct: expressed in transfected cells; host or cells: BHK (baby hamster kidney) cells, membrane preparation
T2 sequence (P48546 22-466): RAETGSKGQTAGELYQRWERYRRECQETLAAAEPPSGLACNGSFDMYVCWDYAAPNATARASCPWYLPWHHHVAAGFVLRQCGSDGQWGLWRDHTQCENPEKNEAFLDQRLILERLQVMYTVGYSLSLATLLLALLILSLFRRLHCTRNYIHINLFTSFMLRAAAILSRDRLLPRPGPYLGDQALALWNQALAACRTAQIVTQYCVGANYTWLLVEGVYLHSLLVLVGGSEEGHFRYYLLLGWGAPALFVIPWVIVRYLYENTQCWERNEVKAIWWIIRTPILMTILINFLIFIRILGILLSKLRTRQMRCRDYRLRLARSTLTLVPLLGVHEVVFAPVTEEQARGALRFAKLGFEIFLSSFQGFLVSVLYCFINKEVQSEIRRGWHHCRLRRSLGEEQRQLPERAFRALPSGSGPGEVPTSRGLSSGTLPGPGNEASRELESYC
Outline: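 Membranes from BHK cells transfected with human GIP receptor; competition binding in HEPES pH 7.5 buffer with Ca2+/Mg2+, compounds added in DMSO, WGA SPA beads. Incubated 3.5 h shaking, settled 8-48 h, then scintillation counted; non-specific binding defined with 500 nM GIP.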

[1] = membranes of BHK cells transfected with human glucagon receptor, 125I-glucagon, SPA, read-out: Glu Bd Assay (II) IC50

T1 sequence (P47871 26-477): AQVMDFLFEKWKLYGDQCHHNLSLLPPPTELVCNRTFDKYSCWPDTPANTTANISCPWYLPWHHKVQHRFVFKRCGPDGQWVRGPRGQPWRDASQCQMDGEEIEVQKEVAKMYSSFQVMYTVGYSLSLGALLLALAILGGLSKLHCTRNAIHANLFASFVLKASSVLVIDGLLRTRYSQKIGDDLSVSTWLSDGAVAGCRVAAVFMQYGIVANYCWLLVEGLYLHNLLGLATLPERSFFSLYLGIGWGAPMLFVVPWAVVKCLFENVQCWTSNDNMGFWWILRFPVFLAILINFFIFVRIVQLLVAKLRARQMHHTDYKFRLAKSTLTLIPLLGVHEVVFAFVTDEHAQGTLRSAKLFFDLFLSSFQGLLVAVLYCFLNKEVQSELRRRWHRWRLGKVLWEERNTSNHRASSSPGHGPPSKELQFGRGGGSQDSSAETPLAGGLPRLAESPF

Compound	IC50 (human glucagon receptor; [1]) [nM]	IC50 (human GIP receptor) [nM]	IC50 (human glucagon receptor) [nM]
CC(C)(C)C1CCC(N(Cc2ccc(C(=O)NC[C@@H](O)C(=O)O)cc2)C(=O)c2csc3ccc(Cl)cc23)CC1 (stereo partly drawn) [Example 61, (R)-3-(4-{[(4-tert-Butylcyclohexyl)-(5-chlorobenzo[b]thiophene-3-carbonyl)amino]methyl}-benzoylamino)-2-hydroxypropionic acid]	754	> 3000	–
O=C(NC[C@@H](O)C(=O)O)c1ccc(CN(CC(c2ccccc2)c2ccccc2)C(=O)c2cc3cc(OC(F)(F)F)ccc3[nH]2)cc1 [Example 62, (R)-3-(4-{[(2,2-Diphenylethyl)-(5-trifluoromethoxy-1H-indole-2-carbonyl)amino]methyl}-benzoylamino)-2-hydroxypropionic acid]	757	> 3000	–
O=C(NC[C@@H](O)C(=O)O)c1ccc(CN(C(=O)Cc2ccc(OC(F)(F)F)cc2)c2ccc(C3CCCCC3)cc2)cc1 [Example 63, (R)-3-[4-({(4-Cyclohexylphenyl)-[(4-trifluoromethoxyphenyl)acetyl]amino}methyl)benzoylamino]-2-hydroxypropionic acid]	336	> 3000	–
O=C(NC[C@@H](O)C(=O)O)c1ccc(CN(C(=O)Cc2cccc(OC(F)(F)F)c2)c2ccc(C3CCCCC3)cc2)cc1 [Example 64, (R)-3-[4-({(4-Cyclohexylphenyl)-[(3-trifluoromethoxyphenyl)acetyl]amino}methyl)benzoylamino]-2-hydroxypropionic acid]	514	> 3000	–
O=C(NC[C@@H](O)C(=O)O)c1ccc(CN(C(=O)Cc2cc(F)cc(C(F)(F)F)c2)c2ccc(C3CCCCC3)cc2)cc1 [Example 65, (R)-3-[4-({(4-Cyclohexylphenyl)-[(3-fluoro-5-trifluoromethylphenyl)acetyl]amino}methyl)benzoylamino]-2-hydroxypropionic acid]	520	> 3000	–

More lines, now with the values ahead:

IC50 (human glucagon receptor; [1]) [nM]	IC50 (human GIP receptor) [nM]	IC50 (human glucagon receptor) [nM]	Compound
325	> 3000	–	O=C(NC[C@@H](O)C(=O)O)c1ccc(CN(C(=O)Cc2cc(C(F)(F)F)cc(C(F)(F)F)c2)c2ccc(C3CCCCC3)cc2)cc1 [Example 66, (R)-3-(4-{([(3,5-Bis(trifluoromethyl)phenyl)acetyl]-(4-cyclohexylphenyl)amino)methyl}benzoylamino)-2-hydroxypropionic acid]
520	> 3000	–	O=C(NC[C@@H](O)C(=O)O)c1ccc(CN(C(=O)Cc2cccc(C(F)(F)F)c2)c2ccc(C3CCCCC3)cc2)cc1 [Example 67, (R)-3-[4-({(4-Cyclohexylphenyl)-[(3-trifluoromethylphenyl)acetyl]amino}methyl)benzoylamino]-2-hydroxypropionic acid]
–	> 3000	528	O=C(NC[C@@H](O)C(=O)O)c1ccc(CN(C(=O)Cc2ccc(Cl)c(Cl)c2)c2ccc(C3CCCCC3)cc2)cc1 [Example 68, (R)-3-[4-({(4-Cyclohexylphenyl)-[(3,4-dichlorophenyl)acetyl]amino}methyl)benzoylamino]-2-hydroxypropionic acid]
430	> 3000	–	O=C(NC[C@@H](O)C(=O)O)c1ccc(CN(C(=O)Cc2cccc(Br)c2)c2ccc(C3CCCCC3)cc2)cc1 [Example 69, (R)-3-(4-{[[(3-Bromophenyl)acetyl]-(4-cyclohexylphenyl)amino]methyl}benzoylamino)-2-hydroxypropionic acid]
740	> 3000	–	O=C(NC[C@@H](O)C(=O)O)c1ccc(CN(C(=O)Cc2ccc(-c3ccccc3)cc2)c2ccc(C3CCCCC3)cc2)cc1 [Example 70, (R)-3-(4-{[(Biphenyl-4-ylacetyl)-(4-cyclohexylphenyl)amino]methyl}benzoylamino)-2-hydroxypropionic acid]
886	> 3000	–	O=C(NC[C@@H](O)C(=O)O)c1ccc(CN(C(=O)Cc2ccc3ccccc3c2)c2ccc(C3CCCCC3)cc2)cc1 [Example 71, (R)-3-(4-{[(4-Cyclohexylphenyl)-(2-naphthylacetyl)amino]methyl}benzoylamino)-2-hydroxypropionic acid]
